Consider 5 molecules from patent publication US20170342110A1, “GLYCOPEPTIDES AND USES THEREOF” (JAWAHARLAL NEHRU CENTRE FOR ADVANCED SCIENTIFIC RESEARCH …, priority 2014, published 2017).

Molecules are shown by their SMILES. Values after ≈ are worked out from the molar mass of the structure shown. Read-outs that look alike come from different tables or passages of the source.

Assay [1] relates to Vancomycin-resistant E. faecalis (VanA, ATCC 51575). Put plainly: Minimum inhibitory concentration, micro-dilution broth, VREs. To be noted: Enterococcus faecalis, read-out: Minimum Inhibitory Concentration VREs. In kind it is cell-based. As for the experimental part:
(§1) All test compounds were assayed in a micro-dilution broth format. Stock solutions were made by serially diluting the compounds using autoclaved millipore water or broth media. The antibacterial activity of the compounds was determined againstmethicillin-resistant S. aureus (MRSA), vancomycin-intermediate-resistant S. aureus (VISA), vancomycin-sensitive E. faecium (VSE), vancomycin-resistant E. faecalis and vancomycin-resistant E. faecium (VRE). Bacteria, to be tested, were grown for about 10 h in the suitable media, MSSA, MRSA and VISA were grown in […] (about 1 g of beef extract, about 2 g of yeast extract, about 5 g of peptone and about 5 g of NaCl in about 1000 mL of sterile distilled water (pH-7)). For solid media, about 5% agar was used along with above mentioned composition. VSE and VRE were cultured in Brain Heart Infusion broth (Himedia). The bacterial samples were freeze dried and stored at −80° C. About 5 μL of these stocks were added to about 3 mL of the nutrient broth or Brain Heart Infusion broth and the culture was grown for about 6 h at about 37° C. prior to the experiments. This 6 h grown culture gives about 10^9 cfu/mL and this was determined by spread plating method. The 6 h grown culture was diluted to give effective cell concentration of about 10^5 cfu/mL, which was then used for determining MIC. Compounds were serially diluted, in sterile water (2-fold dilution is employed) in a way that the working concentration was about 10 μM for MRSA, and VSE while for VRE and VISA it was about 100 μM. About 50 μL of these serial dilutions were added to the wells of 96 well plate followed by the addition of about 150 μL of bacterial solution. The plates were then incubated at about 37° C., 150 rpm in the incubator and O.D at 620 nm was recorded at an interval of about 24 h using TECAN (Infinite series, M200 pro) Plate Reader. Each concentration had triplicate values and the whole experiment was done at least twice and the MIC value was determined by taking the average of triplicate O. D. values for each concentration and plotting it against concentration. The data was then subjected to sigmoidal fitting.
A general note: In broth dilution the organism is exposed to a series of concentrations in liquid medium.

For assay [2], the system named is Vancomycin-resistant E. faecium (ATCC 51559). Briefly: Minimum inhibitory concentration, micro-dilution broth, VREm. In kind it is cell-based. The following applies: for MIC: Enterococcus faecium, read-out: Minimum Inhibitory Concentration VREm. The procedure:
as §1

Assay [3] has as its system Methicillin-resistant S. aureus (ATCC 33591). Put plainly: Minimum inhibitory concentration, micro-dilution broth, MRSA. In kind it is cell-based. The following applies: Staphylococcus aureus, read-out: Minimum Inhibitory Concentration MRSA. The procedure:
as §1

Assay [4] has as its system Vancomycin intermediate resistant S. aureus. Briefly: Minimum inhibitory concentration, micro-dilution broth, VISA. It counts as cell-based. To be noted: Staphylococcus aureus, read-out: Minimum Inhibitory Concentration VISA. The procedure: as §1
Assay [5] deals with methicillin-resistant vancomycin intermediate S. aureus (MR-VISA). Put plainly: Mouse neutropenic thigh infection model against MR-VISA. In kind it is in vivo. The following applies: neutropenic female CD-1 mice, 12 mg/kg intravenously, 24 h post first treatment. As for the experimental part:
In-vivo activity against methicillin-resistant vancomycin intermediate S. aureus (MR-VISA):
Mouse Neutropenic Thigh Infection Model:
About six-week-old, female CD-1 mice (weight, ˜19-24 g) were used for the experiments. The mice were rendered neutropenic (˜100 neutrophils/ml) by injecting two doses of cyclophosphamide intraperitoneally 4 days (150 mg/kg) and 1 day (100 mg/kg) before the infection experiment. 50 μL of […] concentration of the bacterial inoculum (MR-VISA) was injected into the thigh. One hour after inoculation, animals were treated intravenously with saline, vancomycin, linezolid and compound 14 at 12 mg/kg body weight. At 24 h post first treatment, cohorts of animals were euthanized (using ether) and the thighs were collected aseptically. […] The dilutions of the homogenate were plated onto agar plates, which were incubated overnight at 37° C. The bacterial titer was expressed as log10 CFU/g of thigh weight.

Where [6] appears, read: ATCC51575, E. faecalis ATCC 51575, O.D. 620 nm at 24 h.
[7] abbreviates: ATCC51559, E. faecium ATCC 51559, O.D. 620 nm at 24 h.
The mark [8] stands for this setting: MRSA ATCC 33591, O.D. 620 nm at 24 h.

For the molecule `CCCCCCCC[n+]1ccc(CNC2(C)CC(OC3C(Oc4c5cc6cc4Oc4ccc(cc4Cl)C(O)C4NC(=O)[C@@H](NC(=O)[C@@H]6NC(=O)C(CC(N)=O)NC(=O)C(NC(=O)C(CC(C)C)NC)C(O)c6ccc(c(Cl)c6)O5)c5ccc(O)c(c5)-c5c(O)cc(O)cc5[C@@H](C(=O)NCCCNC(=O)C(O)C(O)C(O[C@H]5OC(CO)C(O)C(O)C5O)C(O)CO)NC4=O)OC(CO)C(O)C3O)OC(C)C2O)cc1` (some centres unmarked) [Compound 14], the MIC in assay [1] (setting [6]) turned out to be 1.36 µM; in assay [2] (setting [7]), 0.09 µM; in assay [3] (setting [8]) it was 0.09 µM; in assay [4] (O.D. 620 nm at 24 h), 0.1 µM. For the same molecule, the “fold more active than vancomycin against VREm/VRE (MIC)” value in assay [2] (relative to vancomycin) was over 7500 fold. In addition, the “reduction in bacterial count from the vehicle treated mice” value in assay [5] is about 6.0 log10 CFU/g.

Consider `CCCCCCCCCC[n+]1ccc(CNC2(C)CC(OC3C(Oc4c5cc6cc4Oc4ccc(cc4Cl)C(O)C4NC(=O)[C@@H](NC(=O)[C@@H]6NC(=O)C(CC(N)=O)NC(=O)C(NC(=O)C(CC(C)C)NC)C(O)c6ccc(c(Cl)c6)O5)c5ccc(O)c(c5)-c5c(O)cc(O)cc5[C@@H](C(=O)NCCCNC(=O)C(O)C(O)C(O[C@H]5OC(CO)C(O)C(O)C5O)C(O)CO)NC4=O)OC(CO)C(O)C3O)OC(C)C2O)cc1` (some centres unmarked) [Compound 15], for which the MIC amounted to 1.3 µM in assay [1] (setting [6]), 0.3 µM in assay [2] (setting [7]), 0.2 µM in assay [3] (setting [8]) and 0.09 µM in assay [4] (O.D. 620 nm at 24 h).

`CCCCCCCCCCCC[n+]1ccc(CNC2(C)CC(OC3C(Oc4c5cc6cc4Oc4ccc(cc4Cl)C(O)C4NC(=O)[C@@H](NC(=O)[C@@H]6NC(=O)C(CC(N)=O)NC(=O)C(NC(=O)C(CC(C)C)NC)C(O)c6ccc(c(Cl)c6)O5)c5ccc(O)c(c5)-c5c(O)cc(O)cc5[C@@H](C(=O)NCCCNC(=O)C(O)C(O)C(OC5OC(CO)C(O)C(O)C5O)C(O)CO)NC4=O)OC(CO)C(O)C3O)OC(C)C2O)cc1` (some centres unmarked) [Compound 16]: the MIC was found to be 1.11 µM in assay [1] (setting [6]), 0.37 µM in assay [2] (setting [7]), 0.28 µM in assay [3] (setting [8]) and 0.31 µM in assay [4] (O.D. 620 nm at 24 h).

For the molecule `CNC(CC(C)C)C(=O)NC1C(=O)N[C@H](CC(N)=O)C(=O)N[C@H]2C(=O)N[C@H]3C(=O)NC(C(=O)N[C@@H](C(=O)O)c4cc(O)cc(O)c4-c4cc3ccc4O)C(O)c3ccc(c(Cl)c3)Oc3cc2cc(c3OC2OC(CO)C(O)C(O)C2OC2CC(C)(N)C(O)C(C)O2)Oc2ccc(cc2Cl)C1O` (some centres unmarked) [Vancomycin, reference compound], the MIC is 250 µM (≈ 362 µg/mL) in assay [1] (ATCC51575, 24 h); 750 µM (≈ 1090 µg/mL) in assay [2] (ATCC51559, 24 h); 0.78 µM (≈ 1.13 µg/mL) in assay [3] (24 h); 8 to 12 µM (≈ 11.6 to 17.4 µg/mL) in assay [4] (24 h). Moreover, the “in-vivo antibacterial activity compared to vehicle treated mice (saline), in words” value in assay [5] is reported as “minimal or no activity”.

Take `CC(=O)NC[C@H]1CN(c2ccc(N3CCOCC3)c(F)c2)C(=O)O1` [linezolid]: in assay [5], the “in-vivo antibacterial activity compared to vehicle treated mice (saline), in words” value is “minimal or no activity”.
